We go through twelve compounds from patent publication US4503236A, “Antiallergic 4Hfuro[3,2-b]indoles” (Warner-Lambert Company, priority 1983, dated 1985).

The structures appear in SMILES notation.

One assay deals with Trachea and lungs (ovalbumin-sensitized guinea pig tissue, antigen challenge). Briefly: modified Shultz-Dale procedure: inhibition of antigen-induced contraction of isolated trachea and lung from ovalbumin-immunized guinea pigs. Format: cell-based. The conditions noted are these: 3 × 10^-5 M; isolated guinea pig tissue (trachea/lung not distinguished), antigen challenge 10 min after drug. The protocol:
The compounds of the invention display antiallergic properties when tested by the following procedure [modification of Shultz-Dale procedure, Agents and Actions, 8, 171 (1978)]: Guinea pigs, after one week environmental stabilization, are immunized IP with 1 mg crude ovalbumin (OA) in 1 ml saline with 50% complete Freund's Adjuvant (CFA). Twenty-one days later animals are killed by a blow to the head. Trachea and lungs are removed and placed in Tyrode's solution, pH 7.4, aerated with 5% CO2 in O2.
Trachea: Connective and vascular tissue are removed and a wooden stick is inserted in the lumen. One end of the trachea is fixed with a pin. The stick is held against a surgical blade and rotated in a helical manner. Spirals formed are cut into two lengths, each containing two or more bands of transverse strips of tracheal muscle. The tissue is attached to transducers and maintained at 5 g tension. Sensitivity of the preamplifier is 2.0 mv/cm and of the amplifier, 0.02 mv/cm, with calibration of 20 mg force displacement per mm. After 45 minutes equilibration, the tissue is challenged with antigen.
Lung: The heart and lung are removed as a unit and the lung is perfused with buffer by the spontaneously beating heart for several minutes. Distal strips of lung from the diaphragmatic lobe approximately 0.3 cm wide and 3 cm long are removed and attached to transducers. Preload is 0.3 g of tension with sensitivity at 0.02 mv/cm on the amplifier and 0.5 mv/cm on the preamp and calibration of 1 mm=5 mg force displacement.
Test Design for Evaluation of Drugs: All tissues are challenged repetitively with the same concentration of antigen. After each concentration, the tissue is washed and allowed to stabilize. The original baseline tension is reestablished before the next challenge. Control contractions in lung must develop a minimum of 10 mg and in trachea, a minimum of 40 mg tension above baseline. When the contractions are reproducible, drug is introduced. Drug effects of baseline are monitored. Ten minutes later, after readjustment to baseline tension as indicated by consecutive reading one minute apart, tissue is again challenged with antigen. The concentration is monitored for at least 15 minutes and the tissue is washed free of antigen and drug. […] Tissues are not used again. If inhibition takes place, a final antigen challenge is repeated to establish that the tissue is reactive to antigen.
With `CCOc1c(C(=O)Nc2nnn[nH]2)oc2c3ccccc3n(-c3ccccc3)c12` [H, C6 H5, C2 H5,, 3-Ethoxy-4-phenyl-N(1H-tetrazol-5-yl)-4H-furo[3,2-b]-indole-2-carboxamide], the % Inhibition (as a rule, how much of the control response was suppressed) came out at 100%.

Staying with this assay, now noted: Cavia porcellus, 10 min; 3 × 10^-5 M; isolated guinea pig tissue (trachea/lung not distinguished), antigen challenge 10 min after drug.
Take `CCOc1c(C(=O)O)oc2c3cc(OC)ccc3n(-c3ccccc3)c12` [CH3 O, C6 H5, C2 H5, COOH, 3-Ethoxy-7-methoxy-4-phenyl-4H-furo[3,2-b]indole-2-carboxylic acid]: the inhibition (in general, the drop in the measured response relative to a control, in per cent) at 30 µM amounted to 100%. `CCOc1c(-c2nnn[nH]2)oc2c3ccccc3n(-c3ccccc3)c12` [H, C6 H5, C2 H5,, 3-Ethoxy-4-phenyl-2(1H-tetrazol-5-yl)-4H-furo[3,2-b]indole]: the inhibition at 30 µM turned out to be 100%.

As to `COc1c(C(=O)Nc2nnn[nH]2)oc2c3ccccc3n(-c3ccccc3)c12` [H, C6 H5, CH3,, 3-Methoxy-4-phenyl-N-(1H-tetrazol-5-yl)-4H-furo[3,2-b]indole-2-carboxamide], the inhibition at 30 µM is 100%. Still for that read-out and setting: in the case of `COc1c(C(=O)O)oc2c3ccccc3n(-c3ccccc3)c12` [H, C6 H5, CH3, COOH, 3-Methoxy-4-phenyl-4H-furo[3,2-b]indole-2-carboxylic acid] it was 100%; in that of `COc1c(-c2nnn[nH]2)oc2c3ccccc3n(C)c12` [H, CH3, CH3,, 3-Methoxy-4-methyl-2-(1H-tetrazol-5-yl)-4H-furo[3,2-b]indole], 26%. In the case of `COc1c(C(=O)Nc2nnn[nH]2)oc2c3ccccc3n(C)c12` [H, CH3, CH3,, 3-Methoxy-4-methyl-N-(1H-tetrazol-5-yl)-4H-furo[3,2-b]indole-2-carboxamide], the inhibition at 30 µM was 38%. Regarding `COc1ccc2c(c1)c1oc(C(=O)Nc3nnn[nH]3)c(OC)c1n2-c1ccccc1` [CH3 O, C6 H5, CH3,, 3,7-Dimethoxy-4-phenyl-N-(1H-tetrazol-5-yl)-4H-furo[3,2-b]indole-2-carboxamide], the inhibition at 30 µM was determined as 100%. For the compound `CCOc1c(C(=O)Nc2nnn[nH]2)oc2c3cc(OC)ccc3n(-c3ccccc3)c12` [CH3 O, C6 H5, C2 H5,, 3-Ethoxy-7-methoxy-4-phenyl-N-(1H-tetrazol-5-yl)-4H-furo[3,2-b]indole-2-carboxamide], the inhibition at 30 µM was 100%. On to `CCOc1c(C(=O)O)oc2c3ccccc3n(-c3ccccc3)c12` [H, C6 H5, C2 H5, COOH, 3-Ethoxy-4-phenyl-4H-furo[3,2-b]indole-2-carboxylic acid], for which the inhibition at 30 µM is 100%. For `COc1ccc2c(c1)c1oc(-c3nnn[nH]3)c(OC)c1n2-c1ccccc1` [CH3 O, C6 H5, CH3,, 3,7-Dimethoxy-4-phenyl-2-(1H-tetrazol-5-yl)-4H-furo[3,2-b]indole], the inhibition at 30 µM came out at 100%. The same measure, in the same setting: in the case of `COc1ccc2c(c1)c1oc(C(=O)O)c(OC)c1n2-c1ccccc1` [CH3 O, C6 H5, CH3, COOH, 3,7-Dimethoxy-4-phenyl-4H-furo[3,2-b]indole-2-carboxylic acid] it was 100%.
